Measurements published in patent US20050266106A1, “Use of fermented wheat germ extract as anti-inflammatory agent” (priority 2002, published 2005).

Tested on: adjuvant arthritis (AA)
Assay: histological studies of joints of AA rats
Type: in vivo
Experimental: The affected joints of the right hind foot pad together with the epiphyses of the bones and the surrounding fibrous and muscular tissues were fixed in buffered neutral 4% formalin. Decalcification was performed by using EDTA and the samples were embedded into paraffin. 8 μm thin longitudinal sections were cut and the sections were stained with hemotoxiline (H) and eosine (E). In the selected positive control and in the treated cases an immunoperoxidase reaction was performed to show CD4 and CD8 positive T-lymphocytes. The used antibody was the product of Santa Cruz (Santa Cruz, Calif., USA), applied in 1:100 dilution.
There was no significant difference between the groups receiving 24-hour and 14-day pretreatment, respectively.

Structure (SMILES) | Histological grade (average 1 to 3) of inflammatory infiltrates (2 × 0.05 mg/kg/day, 14-day pretreatment) | Histological grade (average 1 to 3) of inflammatory infiltrates (2 × 0.05 mg/kg/day, 24-hour pretreatment) | Histological grade (average 1 to 3) of inflammatory infiltrates (2 × 0.5 mg/kg/day, 14-day pretreatment) | Histological grade (average 1 to 3) of inflammatory infiltrates (2 × 0.5 mg/kg/day, 24-hour pretreatment)
C[C@@H]1C[C@H]2[C@@H]3CCC4=CC(=O)C=C[C@]4(C)[C@@]3(F)[C@@H](O)C[C@]2(C)[C@@]1(O)C(=O)CO [Dexamethasone] | 1.2 | 1.4 | – | –
COc1ccc2c(c1)c(CC(=O)O)c(C)n2C(=O)c1ccc(Cl)cc1 [Indomethacin] | – | – | 1.2 | 1.0
